Assay results from patent publication US6380179B1, “Method for treatment of alopecia” (Sankyo Company, Limited, priority 1997, dated 2002).

Experiments:
[1] = tested on: monkey model animal of male pattern baldness; settings: cited from earlier work
human baldness = settings: clinical test; cited from earlier work
[2] = tested on: dihydrotestosterone (DHT) and testosterone (T) levels in blood; assay: Effects for lowering the dihydrotestosterone level in human blood after oral administration; assay type: in vivo; settings: n=4 to 6
Procedure: Effects for Lowering the Dihydrosterone Level in Human Blood
To a human body, 1 to 10 mg/body of Compound I or 5 mg/body of Finasteride was orally administered and the dihydrotestosterone (DHT) and testosterone (T) levels in blood were measured. Their ratios (DHT/T) before administration (pre) and after passage of time (10 and 18 hours) were calculated, from which (DHT/T)/(DHT/T)pre was calculated.

[3] = molecular target: T1, recombinant type I human 5α-reductase (Homo sapiens, UniProt P18405); assay: Inhibitory activity against recombinant type I human 5α-reductase (conversion of 14C testosterone to 14C 5α-dihydrotestosterone); assay type: biochemical; settings: recombinant human type I 5α-reductase, pH 7.5, 1 μM 14C testosterone, 37° C. 15 minutes; Table 1
T1 construct: In order to clone the entirely translated regions of type I and type II human 5α-reductases by a polymerase chain reaction (PCR) method; made in house; host or cells: COS-1 cells transiently transfected with pME18sH5R1; resuspended 10000×g pellet of the homogenate used as the enzyme
T1 sequence (P18405 1-259): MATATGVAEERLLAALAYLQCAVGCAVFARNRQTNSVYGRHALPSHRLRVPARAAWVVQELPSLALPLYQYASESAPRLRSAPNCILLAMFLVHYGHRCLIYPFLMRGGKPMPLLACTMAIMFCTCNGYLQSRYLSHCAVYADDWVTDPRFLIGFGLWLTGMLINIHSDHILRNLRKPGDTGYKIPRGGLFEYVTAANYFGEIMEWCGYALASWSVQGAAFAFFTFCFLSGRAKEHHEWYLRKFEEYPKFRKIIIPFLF
Procedure: Method for Determination of the Inhibitory Activity Against Each of Type I and Type II Human 5α-reductases
(1) Preparation of recombinant human type I and type II 5α-reductases
In order to clone the entirely translated regions of type I and type II human 5α-reductases by a polymerase chain reaction (PCR) method, primers of Sequence ID. Nos. 1,2,3 and 4 were prepared using an Oligo 1000 DNA synthesizer (product of BECKMAN Co., Ltd.) on the basis of the base sequences of type I and type II human 5α-reductases described in published reports (Stefan. A, et al., Proc. Natl. Acad. Sci. USA, 87, 3640-3644(1990). Stefan. A, et al. Nature, 354. 159-161(1991)).
PCR was carried out using 1 μl of cDNA. 5 μl of a PCR buffer attached. 1 μl of a 10 mM dNTP mixed solution. 1 μl each of the above-described sense and antisense-primers at a concentration of 20 μl M. 1 μl of […] of TaKaRa Taq polymerase and 40 μl of distilled water to give a reaction volume of 50 μl. For PCR, a cycle of the reactions at 94° C. for 20 seconds, at 55° C. for 1 minute and at 72° C. for 1 minute was repeated 25 times, followed by storing at 4° C. […]
The protein content was measured by the Bradford method (Bio-Rad Protein Assay of Biorad) by using bovine gamma-globulin (bovine cohn fraction II, product of Sigma) as a standard product. […]

SMILES: CC(C)CCCC(C)C1CCC2C3C(C)CC4N(C)C(=O)CCC4(C)C3CCC12C (stereo not shown) [MK386]
- effectiveness on baldness [1]: not recognized

SMILES: CC(C)(C)NC(=O)[C@H]1CC[C@H]2[C@@H]3CC[C@H]4NC(=O)C=C[C@]4(C)[C@H]3CC[C@]12C [Finasteride, reference compound]
- effectiveness on baldness [1]: effective in the treatment of baldness
- effects on human baldness (human baldness): have been recognized
- (DHT/T)/(DHT/T)pre ([2]; 5 mg/body, after 10 hours): 0.553
- (DHT/T)/(DHT/T)pre ([2]; 5 mg/body, after 18 hours): 0.461
- IC50 [3]: 700 nM

SMILES: COc1ccc(C(C)(C)NC(=O)[C@H]2CC[C@H]3[C@@H]4CC[C@H]5NC(=O)C=C[C@]5(C)[C@H]4CC[C@]23C)cc1 [Compound of Reference Example 1, N-[1-Methyl1-(4-methoxyphenyl)ethyl]-3-oxo4-aza-5α-androsto-1-ene-17β-carboxamide]
- (DHT/T)/(DHT/T)pre ([2]; 1 mg/body, after 10 hours): 0.518
- (DHT/T)/(DHT/T)pre ([2]; 1 mg/body, after 18 hours): 0.525
- (DHT/T)/(DHT/T)pre ([2]; 5 mg/body, after 10 hours): 0.411
- (DHT/T)/(DHT/T)pre ([2]; 5 mg/body, after 18 hours): 0.376
- (DHT/T)/(DHT/T)pre ([2]; 10 mg/body, after 10 hours): 0.279
- (DHT/T)/(DHT/T)pre ([2]; 10 mg/body, after 18 hours): 0.284
- IC50 [3]: 49 nM
